Values of other authors as cited in patent EP0630652A2, “Contrast media” (NYCOMED SALUTAR, INC., priority 1991, dated 1993).

Columns and labels:
[1] = Unger et al. Invest. Radiol. 21: 802 (1986)
[2] = Caussen et al. ROFO 148: 683

SMILES | LD₅₀ [1] [mmol/kg] | side effect ([2]; GI tract use) | contrast improvement in the GI tract ([2]; MRI)
O=C([O-])CN(CCN(CC(=O)[O-])CC(=O)[O-])CCN(CC(=O)[O-])CC(=O)[O-].[Yb+3] [ytterbium DTPA] | 10 |  | 
O=C([O-])CN(CCN(CC(=O)[O-])CC(=O)O)CCN(CC(=O)[O-])CC(=O)O.[Gd+3] [GdDTPA] |  | diarrhoea | relatively poor
